Patent publication US20240293558A1, “KRAS INHIBITOR CONJUGATES” (Erasca, Inc., priority 2021, published 2024)
Read-outs that look alike come from different tables or passages of the source.

Key:
[1] = target: T1, KRAS (WT) (Homo sapiens, UniProt P01116); assay: In-vitro RAS-RAF binding assay (RRB), HTRF/FRET; format: biochemical; settings: read-out: Inhibition of RAS-RAF Binding (in-vitro) KRAS (WT) IC50
T1 construct: Biotinylated KRAS protein amino acids 1-169 (produced at Erasca); made in house
Summary of the method: (§1)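 Biotinylated KRAS 1-169 (streptavidin-terbium donor, 30 nM) and GST-cRAF RBD (anti-GST d2 acceptor, 30 nM) in HEPES pH 7.5, NaCl, MgCl2, DTT buffer. After compound incubation, SOS1 catalytic domain plus GTPgS drive 60 min nucleotide exchange. HTRF FRET read at equilibrium, in duplicate.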

[2] = target: KRAS G12D (Homo sapiens, UniProt P01116, G12D); assay: In-vitro RAS-RAF binding assay (RRB), HTRF/FRET; format: biochemical; set-up: Biotinylated KRAS protein amino acids 1-169 (produced at Erasca); made in house; settings: read-out: Inhibition of RAS-RAF Binding (in-vitro) KRAS (G12D) IC50
Summary of the method: as §1

[3] = target: T2, KRas G12D fused to HiBiT peptide (Homo sapiens, UniProt P01116, G12D); assay: ASPC-1 HiBit assay to determine G12D degradation; format: cell-based; settings: AsPC-1 HiBiT cells, 24-hour incubation; read-out: ASPC-1 HiBit DC50 (C)
T2 construct: endogenous in cells; host or cells: AsPC-1 HiBiT knock-in single clone (Cas9 RNP + ssODN)
Method: Compounds presented herein induce degradation of the KRas G12D (KRasG12D) upon treatment of engineered cancer cell line.
The degradation of the KRasG12D in cellular environment was measured using engineered homozygous KRasG12D AsPC-1 cell line in which KRas G12D was fused to luminescent HiBiT peptide at the N-terminal. The small (1.3 kDa) HiBiT peptide complements with high affinity to a larger (18 kDa) subunit evolved from NanoLuc (termed LgBiT). The resulting complex (i.e., reconstituted luciferase enzyme) generates bright luminescence that translates to high sensitivity (1 amol), broad dynamic range (four orders of magnitude), and rapid kinetics for real time quantitation.
To generate HiBit KRasG12D knock-in cell line, sgRNA (SEQ. ID NO: 1) and ssODN (SEQ. ID NO: 2) were designed and synthesized at GenScript.
RNP complex was generated by mixing of 100 pmol of Cas9 protein to PCR tubes containing 300 pmol sgRNA incubating the resultant complex at room temperature for 20 min. […] ssODN was added to RNP complex slowly and RNP-ssODN complex was incubated at room temperature for 10 min. RNP-ssODN complex was mixed with […] of AsPC-1 cells (1×10^6 cells total) and electroporated using Nucleofactor (Program CM-150). Cells were then incubated at ambient temperature for 5 min and transferred to a six-well plate containing 2 ml growth medium.
To select pools with the highest luminescence signal, 10^4 cells of parental AsPC-1 and transfected pools were plated in solid white 384-well tissue culture plates. 24 hours after seeding, HiBiT was detected using the Nano-Glo HiBiT Lytic Detection System (Promega) following manufacturer's instructions. Briefly, […] of Nano-Glo HiBiT Lytic Detection Reagent was added directly to the cells and mixed by inversion before recording luminescence on an Envision (Perkin-Elmer) with 0.5 s integration time.
Single clones were isolated from stable pool by limited dilution method and presence of HiBiT knock-in was verified by TA cloning and subsequent sequencing. Additionally, western blotting analysis was conducted to confirm selection of single clones with high luminescence signal.
For DC50S measurements, AsPC-1 HiBiT single clone cells were grown in RPMI 1640 medium (Invitrogen 22400-089) supplemented with 10% fetal bovine serum. Cells were seeded in 384-well tissue culture plates at a density of 7,000 cells/well and allowed to attach for 24 hours.
Test compounds were distributed directly into assay plate with the adjustment for DMSO concentration using Tecan HP D300e. For most of the experiments, the final concentration of compounds starts from 10 μM, 3-fold dilution dose response and 10 doses. […] DMSO final concentration is 1%. Each concentration of exemplary compound was tested as singleton. The negative control wells were cells with DMSO only, and the positive control wells were cells with […] inhibitor.
Following 24-hour incubation with the compounds plate and Nano-Glo® HiBiT Lytic reagents were equilibrated to room temperature. 20 μL of HiBiT Lytic reagent were added to each well. The assay plate was incubated on digital microplate shaker (350 rpm) for 20 min followed by centrifugation at 500 g for 1 min. Luminescence was recorded using Envision (Perkin-Elmer) using aperture 384-L1 with 0.1 s integration time.
HiBiT signal are used to calculate the % degradation at given compound concentration using the following formula:
% Degradation=(1−(Sample HiBiT signal−Ave Min signal)/(Ave Max signal−Ave Min signal))*100%
For DC50 calculation, the data with the hook effect were removed first and DC50S was reported using a 4-parameter fit of dose response curve using GraphPad in those cases where maximum % degradation was >50% and Minimal % degradation was <50%. The decrease in DC50 reflects that the exemplary compound led to a higher level of degradation of KRasG12D than another exemplary compound at specific timepoint of treatment of cancer cell line. […]

[4] = Table 2, average of multiple runs of each compound

T1 sequence (P01116 1-169 isoform P01116-2): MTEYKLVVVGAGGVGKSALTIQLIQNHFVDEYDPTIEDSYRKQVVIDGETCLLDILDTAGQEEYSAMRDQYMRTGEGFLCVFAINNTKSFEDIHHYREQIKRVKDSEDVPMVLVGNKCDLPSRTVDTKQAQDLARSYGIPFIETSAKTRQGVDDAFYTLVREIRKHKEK
Sequence of KRAS G12D (P01116 1-169 isoform P01116-2 G12D): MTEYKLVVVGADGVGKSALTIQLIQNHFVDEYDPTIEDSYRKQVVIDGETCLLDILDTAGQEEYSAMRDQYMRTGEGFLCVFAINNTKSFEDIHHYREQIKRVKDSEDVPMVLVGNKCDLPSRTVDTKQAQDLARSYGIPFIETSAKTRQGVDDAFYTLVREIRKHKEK
T2 sequence (P01116 1-188 isoform P01116-2 G12D): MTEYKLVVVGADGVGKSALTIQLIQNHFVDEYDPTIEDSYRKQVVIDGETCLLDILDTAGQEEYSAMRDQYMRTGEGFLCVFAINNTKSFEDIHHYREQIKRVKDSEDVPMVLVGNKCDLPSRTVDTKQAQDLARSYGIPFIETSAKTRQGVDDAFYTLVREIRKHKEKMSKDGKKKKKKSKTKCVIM

Row | IC50 [1, 4] [nM] | IC50 [2, 4] [nM] | DC50 [3] [nM] | IC50 ([1]; Table 1) [nM] | IC50 ([2]; Table 1) [nM] | Compound
1 | 30 | 8.6 | 135 | – | – | C[C@H](NC(=O)[C@@H]1C[C@@H](O)CN1C(=O)[C@@H](NC(=O)CCOCCCN1CCC[C@H]1COc1nc(N2CC3CCC(C2)N3)c2cc(Cl)c(-c3ccc(F)c4sc(N)c(C#N)c34)c(F)c2n1)C(C)(C)C)c1ccc(-c2c(F)cc(F)cc2F)cc1 (single isomer, unassigned) [Example 97]
2 | 24.9 | 7.43 | 324 | – | – | C#Cc1c(F)ccc2cc(O)cc(-c3ncc4c(N5CC6CCC(C5)N6)nc(OC[C@@H]5CCCN5CCCOCCC(=O)N[C@H](C(=O)N5C[C@H](O)C[C@H]5C(=O)N[C@@H](C)c5ccc(-c6c(F)cc(F)cc6F)cc5)C(C)(C)C)nc4c3F)c12 [Example 49, (2S,4R)-1-((2S)-2-(3-(3-((2S)-2-(((4-(3,8-diazabicyclo[3.2.1]octan-3-yl)-7-(8-ethynyl-7-fluoro-3-hydroxynaphthalen-1-yl)-8-fluoropyrido[4,3-d]pyrimidin-2-yl)oxy)methyl)pyrrolidin-1-yl)propoxy)propanamido)-3,3-dimethylbutanoyl)-4-hydroxy-N-((S)-1-(2′,4′,6′-trifluoro-[1,1′-biphenyl]-4-yl)ethyl)pyrrolidine-2-carboxamide]
3 | 52 | 8.9 | 49 | – | – | C[C@H](NC(=O)[C@@H]1C[C@@H](O)CN1C(=O)[C@@H](NC(=O)CCOCCCN1CCC[C@H]1COc1nc(N2CC3CCC(C2)N3)c2cc(C(F)(F)F)c(-c3ccc(F)c4sc(N)c(C#N)c34)c(F)c2n1)C(C)(C)C)c1ccc(-c2c(F)cc(F)cc2F)cc1 [Example 92, (2S,4R)-1-((2S)-2-(3-(3-((2S)-2-((((7S)-7-(2-amino-3-cyano-7-fluorobenzo[b]thiophen-4-yl)-4-(3,8-diazabicyclo[3.2.1]octan-3-yl)-8-fluoro-6-(trifluoromethyl)quinazolin-2-yl)oxy)methyl)pyrrolidin-1-yl)propoxy)propanamido)-3,3-dimethylbutanoyl)-4-hydroxy-N—((S)-1-(2′,4′,6′-trifluoro-[1,1′-biphenyl]-4-yl)ethyl)pyrrolidine-2-carboxamide]
4 | 962 | 18.1 | 185 | – | – | CC(C)[C@@H](C(=O)N1C[C@H](O)C[C@H]1C(=O)N[C@@H](C)c1ccc(-c2c(F)cccc2F)cc1)c1cc(OCC2(C)CCN(CCOc3nc(N4CC5CCC(C4)N5)c4cc(C(F)(F)F)c(-c5ccc(F)c6sc(N)c(C#N)c56)c(F)c4n3)CC2)no1 [Example 74, (2S,4R)-1-((2R)-2-(3-((1-(2-((7-(2-amino-3-cyano-7-fluorobenzo[b]thiophen-4-yl)-4-(3,8-diazabicyclo[3.2.1]octan-3-yl)-8-fluoro-6-(trifluoromethyl)quinazolin-2-yl)oxy)ethyl)-4-methylpiperidin-4-yl)methoxy)isoxazol-5-yl)-3-methylbutanoyl)-N-((S)-1-(2′,6′-difluoro-[1,1′-biphenyl]-4-yl)ethyl)-4-hydroxypyrrolidine-2-carboxamide]
5 | 799 | 15.4 | – | 799 | 15 | Cc1cc(N)nc(-c2c(Cl)cc3c(N4CC5CCC(C4)N5)nc(OC[C@@H]4CCCN4CCCOCCC(=O)N[C@H](C(=O)N4C[C@H](O)C[C@H]4C(=O)N[C@@H](C)c4ccc(-c5scnc5C)cc4)C(C)(C)C)nc3c2F)c1C(F)(F)F [Example 1, (2S,4R)-1-[(2S)-2-[3-[3-[(2S)-2-[[7-[6-amino-4-methyl-3-(trifluoromethyl)-2-pyridyl]-6-chloro-4-(3,8-diazabicyclo[3.2.1]octan-3-yl)-8-fluoro-quinazolin-2-yl]oxymethyl]pyrrolidin-1-yl]propoxy]propanoylamino]-3,3-dimethyl-butanoyl]-4-hydroxy-N-[(1S)-1-[4-(4-methylthiazol-5-yl)phenyl]ethyl]pyrrolidine-2-carboxamide]
6 | 53.4 | 9.4 | – | – | – | C#Cc1c(F)ccc2cc(O)cc(-c3ncc4c(N5CC6CCC(C5)N6)nc(OC[C@@H]5CCCN5CCCOCCC(=O)N[C@H](C(=O)N5C[C@H](O)C[C@H]5C(=O)N[C@@H](C)c5ccc(-c6c(C)cccc6C)cc5)C(C)(C)C)nc4c3F)c12 [Example 41, (2S,4R)-1-((2S)-2-(3-(3-((2S)-2-(((4-(3,8-diazabicyclo[3.2.1]octan-3-yl)-7-(8-ethynyl-7-fluoro-3-hydroxynaphthalen-1-yl)-8-fluoropyrido[4,3-d]pyrimidin-2-yl)oxy)methyl)pyrrolidin-1-yl)propoxy)propanamido)-3,3-dimethylbutanoyl)-N-((S)-1-(2′,6′-dimethyl-[1,1′-biphenyl]-4-yl)ethyl)-4-hydroxypyrrolidine-2-carboxamide]
7 | 98.9 | 10.2 | – | – | – | C#Cc1c(F)ccc2cc(O)cc(-c3ncc4c(N5CC6CCC(C5)N6)nc(OC[C@@H]5CCCN5CCCOCCC(=O)O[C@H](C(=O)N5C[C@H](O)C[C@H]5C(=O)N[C@@H](C)c5ccc(-c6c(C)cccc6C(F)(F)F)cc5)C(C)(C)C)nc4c3F)c12 [Example 50, (S)-1-((2S,4R)-4-hydroxy-2-(((S)-1-(2′-methyl-6′-(trifluoromethyl)-[1,1′-biphenyl]-4-yl)ethyl)carbamoyl)pyrrolidin-1-yl)-3,3-dimethyl-1-oxobutan-2-yl 3-(3-((2S)-2-(((4-(3,8-diazabicyclo[3.2.1]octan-3-yl)-7-(8-ethynyl-7-fluoro-3-hydroxynaphthalen-1-yl)-8-fluoropyrido[4,3-d]pyrimidin-2-yl)oxy)methyl)pyrrolidin-1-yl)propoxy)propanoate]
8 | 52.9 | 9.65 | – | – | – | C#Cc1c(F)ccc2cc(O)cc(-c3ncc4c(N5CC6CCC(C5)N6)nc(OC[C@@H]5CCCN5CCCOCCC(=O)N[C@H](C(=O)N5C[C@H](O)C[C@H]5C(=O)N[C@@H](C)c5ccc(-c6c(F)c(F)cc(F)c6F)cc5)C(C)(C)C)nc4c3F)c12 [Example 54, (2S,4R)-1-((2S)-2-(3-(3-((2S)-2-(((4-(3,8-diazabicyclo[3.2.1]octan-3-yl)-7-(8-ethynyl-7-fluoro-3-hydroxynaphthalen-1-yl)-8-fluoropyrido[4,3-d]pyrimidin-2-yl)oxy)methyl)pyrrolidin-1-yl)propoxy)propanamido)-3,3-dimethylbutanoyl)-4-hydroxy-N-((S)-1-(2′,3′,5′,6′-tetrafluoro-[1,1′-biphenyl]-4-yl)ethyl)pyrrolidine-2-carboxamide]
